This test deals with human somatostatin receptor SSTR2A (Homo sapiens (Human), UniProt P30874). Nature of the test: Competitive radioligand binding, 125I-Tyr-SRIF 14, membrane preparations. To be noted: competitive binding vs 125I-Tyr-SRIF 14, human SSTR2A membranes; read-out: SST2. On the procedure:
Respective membrane receptor preparations were prepared in assay buffer (25 mM HEPES, 10 mM MgCl2, 1 mM CaCl2, 0.5% BSA, pH=7.4) at a 1:150 dilution. […] Binding assays were performed in triplicate for each concentration of ligand in a total volume of 200 μL radioligand (25 μL ligand, 25 μL radioligand, 150 μL receptors) and incubated at room temperature for 90 minutes using a shaking table. Binding was terminated by filtration through GF/B glass fiber filters that were presoaked in 0.5% polyethyleneimine for a minimum of 4 hours. Filters were washed 9× with 1000 μL ice cold wash buffer (50 mM Tris-HCl, pH=7.4, 0.2% BSA). Filters were scored, transferred into plastic test tubes and counted in a gamma counter (Wizard2, Perkin-Elmer). Determination of the Ki for each compound was performed using non-linear regression with GraphPad PRISM-5 software (GraphPad Software, Inc., La Jolla, Calif.).
human somatostatin receptor SSTR2A, sequence (P30874 whole entry): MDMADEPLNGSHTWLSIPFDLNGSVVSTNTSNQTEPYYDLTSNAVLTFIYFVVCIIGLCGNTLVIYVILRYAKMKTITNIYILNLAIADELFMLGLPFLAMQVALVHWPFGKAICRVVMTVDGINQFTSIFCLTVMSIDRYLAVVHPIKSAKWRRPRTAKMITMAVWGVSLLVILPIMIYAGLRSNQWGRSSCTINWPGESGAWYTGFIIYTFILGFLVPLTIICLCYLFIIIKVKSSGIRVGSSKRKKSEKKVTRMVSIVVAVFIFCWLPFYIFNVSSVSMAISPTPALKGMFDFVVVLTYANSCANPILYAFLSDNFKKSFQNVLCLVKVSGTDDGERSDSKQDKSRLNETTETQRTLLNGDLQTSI
Consider `Clc1ccc(Cc2nnc(CCc3c[nH]c4ccccc34)n2CCCc2c[nH]cn2)cc1` [BN-VI-62, 3-(2-(4-(3-(1H-Imidazol-4-yl)propyl)-5-(4-chlorobenzyl)-4H-1,2,4-triazol-3-yl)ethyl)-1H-indole], for which the Ki is over 10 µM. With `N[C@H](Cc1c[nH]c2ccccc12)c1nnc(Cc2cccc(Cl)c2)n1CCCc1c[nH]cn1` [BN-VI-87, (R)-1-(4-(3-(1H-Imidazol-4-yl)propyl)-5-(3-chlorobenzyl)-4H-1,2,4-triazol-3-yl)-2-(1H-indol-3-yl)ethanamine] the figure was over 10 µM; with `Clc1cc(Cl)cc(Cc2nnc(CCc3c[nH]c4ccccc34)n2CCCc2c[nH]cn2)c1` [BN-VI-89, 3-(2-(4-(3-(1H-Imidazol-4-yl)propyl)-5-(3,5-dichlorobenzyl)-4H-1,2,4-triazol-3-yl)ethyl)-1H-indole], 6.98 µM. With `c1ccc(-c2ccc(Cc3nnc(CCc4c[nH]c5ccccc45)n3CCCc3c[nH]cn3)cc2)cc1` [MM-I-26, 3-(2-(4-(3-(1H-Imidazol-4-yl)propyl)-5-([1,1′-biphenyl]-4-ylmethyl)-4H-1,2,4-triazol-3-yl)ethyl)-1H-indole] the figure was over 10 µM; with `O=[N+]([O-])c1cccc(Cc2nnc(CCc3c[nH]c4ccccc34)n2CCCc2c[nH]cn2)c1` [MM-I-43, 3-(2-(4-(3-(1H-Imidazol-4-yl)propyl)-5-(3-nitrobenzyl)-4H-1,2,4-triazol-3-yl)ethyl)-1H-indole], over 10 µM. The figure for `c1ccc(COc2cccc(Cc3nnc(CCc4c[nH]c5ccccc45)n3CCCc3c[nH]cn3)c2)cc1` [MM-I-53, 3-(2-(4-(3-(1H-imidazol-4-yl)propyl)-5-(3-(benzyloxy)benzyl)-4H-1,2,4-triazol-3-yl)-ethyl)-1H-indole] is over 10 µM. Turning to `N#Cc1cccc(Cc2nnc(CCc3c[nH]c4ccccc34)n2CCCc2c[nH]cn2)c1` [MM-I-63, 3-((4-(3-(1H-imidazol-4-yl)propyl)-5-(2-(1H-indol-3-yl)ethyl)-4H-1,2,4-triazol-3-yl)methyl)benzonitrile], the Ki is over 10 µM. On to `Fc1ccc2c(Cc3nnc(Cc4cccc(Br)c4)n3CCCc3c[nH]cn3)c[nH]c2c1` [MM-I-83, 3-((4-(3-(1H-imidazol-4-yl)propyl)-5-(3-bromobenzyl)-4H-1,2,4-triazol-3-yl)methyl)-6-fluoro-1H-indole], for which the Ki was 2.08 µM. In the case of `Fc1ccc2c(Cc3nnc(Cc4cccc(C(F)(F)F)c4)n3CCCc3c[nH]cn3)c[nH]c2c1` [MM-I-87, 3-((4-(3-(1H-imidazol-4-yl)propyl)-5-(3-(trifluoromethyl)benzyl)-4H-1,2,4-triazol-3-yl)methyl)-6-fluoro-1H-indole], the Ki was 3.28 µM. The figure for `Fc1ccc2c(Cc3nnc(Cc4ccccc4)n3CCCc3c[nH]cn3)c[nH]c2c1` [MM-I-89, 3-((4-(3-(1H-imidazol-4-yl)propyl)-5-benzyl-4H-1,2,4-triazol-3-yl)methyl)-6-fluoro-1H-indole] is over 10 µM; for `Fc1ccc(Cc2nnc(Cc3c[nH]c4ccccc34)n2CCCc2c[nH]cn2)cc1` [SK-I-16, 3-((4-(3-(1H-imidazol-4-yl)propyl)-5-(4-fluorobenzyl)-4H-1,2,4-triazol-3-yl)methyl)-1H-indole] it is over 10 µM; for `Clc1ccc(Cc2nnc(Cc3c[nH]c4ccccc34)n2CCCc2c[nH]cn2)cc1` [SK-I-22, 3-((4-(3-(1H-imidazol-4-yl)propyl)-5-(4-chlorobenzyl)-4H-1,2,4-triazol-3-yl)methyl)-1H-indole] it is 7.69 µM. The figure for `COc1ccc(Cc2nnc(CCc3c[nH]c4ccccc34)n2CCCc2c[nH]cn2)cc1` [SM-I-29, 3-(2-(4-(3-(1H-Imidazol-4-yl)propyl)-5-(4-methoxybenzyl)-4H-1,2,4-triazol-3-yl)ethyl)-1H-indole] is over 10 µM. `Cn1cc(CCc2nnc(Cc3cccc(C(F)(F)F)c3)n2CCCc2c[nH]cn2)c2ccccc21` [SM-I-76, 3-(2-(4-(3-(1H-imidazol-4-yl)propyl)-5-(3-(trifluoromethyl)benzyl)-4H-1,2,4-triazol-3-yl)ethyl)-1-methyl-1H-indole]: the Ki is over 10 µM.

(Values after patent US11136312B2, “3,4,5-trisubstituted-1,2,4-triazoles and 3,4,5-trisubstituted-3-thio-1,2,4-triazoles and uses thereof” (Board of Trustees of Southern Illinois University, priority 2017, dated 2021).)
